As a reminder, the Kd is the free concentration of one partner at which half of the binding sites on the other are occupied at equilibrium, for simple one-to-one binding.

SMILES strings stand for the structures. Values joined by “and” are separate entries in the source; they are usually repeats but may differ in a detail not shown here. Equal values may be shown once. “Also recorded” adds a separate entry of the source. Read-outs that look alike come from different tables or passages of the source.

The test system of data set [1] is T47D and MCF-7 human breast cancer cells. Put plainly: MTS cell viability assay. The class given is cell-based. The conditions noted are these: T47D and MCF-7; 100 μM to 0.1 nM, 24 h. As to the method:
Cell viability was assessed using the CellTiter 96 AQueous One Solution Cell Proliferation Assay (Promega, cat. no. G3580), following the manufacturer’s instructions. Briefly, T47D and MCF-7 human breast cancer cells were seeded in 96-well plates at a density of 10,000 cells/well in 100 μL of complete growth medium and allowed to adhere overnight. Cells were then treated with a serial dilution (100 μM to 0.1 nM) of SMI-10B, SMI-10B13, Temozolomide (positive control), or vehicle (DMSO) for 24 h. Following treatment, 20 μL of MTS reagent was added directly to each well, and plates were incubated at 37 °C in a humidified incubator with 5% CO2 and imaged after 1 h of incubation. Absorbance was measured at 490 nm by using a microplate reader. Cell viability was expressed as a percentage relative to the vehicle-treated controls, and experiments were performed in triplicate.
For orientation: Tetrazolium assays rely on reduction of a dye to a coloured formazan, in cell work by metabolically active cells.

Another data set addresses T1, OSM (Homo sapiens, UniProt P13725).
T1 sequence (P13725 26-252): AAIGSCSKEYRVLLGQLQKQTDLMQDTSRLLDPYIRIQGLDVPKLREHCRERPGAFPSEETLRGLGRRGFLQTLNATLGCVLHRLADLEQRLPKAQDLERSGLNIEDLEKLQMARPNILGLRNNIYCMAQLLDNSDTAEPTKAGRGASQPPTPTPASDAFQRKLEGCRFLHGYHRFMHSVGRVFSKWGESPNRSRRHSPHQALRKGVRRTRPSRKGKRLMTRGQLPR
Put plainly: Fluorescence quenching assay of SMI binding to OSM. The conditions noted are these: average of three independent replicates, errors at 95% confidence level, read-out: KD (OSM-SMI dissociation constant). As to the method:
To perform fluorescence quenching assays, 2 mL of 1 μM OSM solution in polymethylmethacrylate cuvettes was prepared by dilution of a concentrated stock solution of recombinant OSM with buffer solution (100 mM sodium chloride, 50 mM sodium phosphate, 50 mM freshly added DTT, pH = 6.6). Cuvettes were titrated with 5 μL increments of a 1 mM small molecule stock solution in DMSO, with a cuvette titrated with an equivalent volume of DMSO as a control. […] In cases where little to no significant quenching was observed, the titration was supplemented with 2.5 μL increments of a 10 mM small molecule stock solution to increase the concentration delivered. The fluorescence intensity measurements were obtained on a Cary Eclipse spectrofluorometer equipped with a Xenon arc lamp. Fluorescence intensities were measured by exciting at 280 nm (4 nm slit width) and recording the emission from 345 to 355 nm with a photomultiplier tube voltage of 700 V, unless otherwise noted. Each titration point was normalized to OSM’s native fluorescence intensity, corrected by adding the decrease in fluorescence intensity caused by dilution with DMSO, and the average value of the three replicates for each point was plotted against concentration of small molecule delivered and fit to a modified Stern–Volmer function as described by Charlier and Plapp. Binding affinity (K D) values were obtained […] from the fitting routine. All curve-fitting analysis was performed in GraphPad Prism 8.0.

The test system of data set [2] is OSM-induced pSTAT3 in T47D human breast cancer cells. Kind of data set: pSTAT3 ELISA in T47D cells treated with OSM ± SMI. The class given is cell-based. The conditions noted are these: for IC50: Homo sapiens. As to the method:
To test the effect of SMIs in vitro, each SMI was incubated with OSM for a period of 1 h at 37 °C, and T47D and MDA-MB-231 human breast cancer cell lines were subsequently treated with OSM (10 ng/mL) and/or SMI-10 (10 μM) analogs for 30 min and measured for pSTAT3 levels via ELISA. The results of these assays are presented graphically in Figure and, for T47D cells, in Table as a percentage of reduction from +OSM alone. For phospho-STAT3 (pSTAT3) ELISAs, T47D MDA-MB-231, and MCF-7 cells were seeded in 12- or 24-well plates at 70–75% confluency and allowed to adhere overnight, after which cells were serum-starved with serum-free RPMI-1640 for 4 h. SMIs (10 μM in DMSO or serially diluted to specified concentrations from a 100 mM stock in DMSO) and human recombinant OSM (10 ng/mL; PeproTech; #300–10T-10UG) were incubated in serum-free RPMI-1640 medium for 1 h. After incubation, the SMI-10 analogs or SMI-10B13 and OSM were added to the serum-starved cells for 30 min. Immediately afterward, the cells were lysed using 1x PathScan Sandwich ELISA Lysis Buffer (Cell Signaling Technology; #7018S), collected, and stored at −20 °C. Lysates were analyzed for pSTAT3 levels using either the PathScan Phospho-STAT3 (Tyr705) Sandwich ELISA Antibody Pair kit (Cell Signaling Technology; #7146) or Human/Mouse Phospho-STAT3 (Y705) DuoSet IC ELISA (R&D Systems; DYC4607B), according to manufacture’s protocol. pSTAT3 expression was measured with absorbance at 450 nm and quantified by comparison relative to OSM-induced pSTAT3 levels. To calculate an IC50 for SMI-10B13, a standard curve was generated as described in the DuoSet IC ELISA datasheet to determine the concentration of pSTAT3.
For orientation: ELISA stands for enzyme-linked immunosorbent assay.

Another data set has as its target T2, 15N OSM (Homo sapiens, UniProt P13725).
T2 construct: ^15N-isotope-labeled OSM^1-187 protein was titrated individually with each of the SMIs; made in house
T2 sequence (P13725 26-212): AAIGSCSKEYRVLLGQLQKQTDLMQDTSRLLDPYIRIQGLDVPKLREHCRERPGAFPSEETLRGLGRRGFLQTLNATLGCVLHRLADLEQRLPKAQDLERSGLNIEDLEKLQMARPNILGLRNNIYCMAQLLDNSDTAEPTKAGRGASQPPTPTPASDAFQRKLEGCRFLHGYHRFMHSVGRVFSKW
Put plainly: 1H,15N HSQC NMR chemical shift perturbation titration. The class given is binding. The conditions noted are these: 100 μM 15N OSM; residues Asp87, Gln90, Arg91, Leu92 at or near site III. As to the method:
Protein was prepared and chemical shift perturbation (CSP) experiments were conducted as previously described by Mass et al. For SMI inhibitor titration studies, in a 5 mm NMR tube, 600 μL of a 100 μM sample of ^15N OSM in NMR buffer (50 mM sodium phosphate (pH 6.6), 100 mM sodium chloride, and 5% D2O) was titrated with a 20 mM stock solution of SMI in d6-dimethyl sulfoxide. The SMI stock solutions were added in 0.75–4 μL increments to a final concentration of 260 μM (SMI-10B) or 200 μM (SMI-10B13) and final volumes of 636 μL (SMI-10B) and 614.25 μL (SMI-10B13). Titration points for SMI-10B were: 0, 20, 40, 60, 80, 100, 140, 180, 220, and 260 μM. Titration points for SMI-10B13 were: 0, 0.5, 1.0, 6.0, 10, 20, 30, 40, 50, 60, and 200 μM.

The mark [3] stands for this setting: T47D, SMI 10 μM + OSM 10 ng/mL, 30 min, ELISA, relative to +OSM, no-treatment blank subtracted.

Turning to `O=C(O)/C=C/c1cc(-c2ccc3cc[nH]c3c2)c(-c2ccc3cc[nH]c3c2)o1` [SMI-10B13, (E)-3-(4,5-di(1H-Indol-6-yl)furan-2-yl)acrylic Acid], in data set [1], the “Cytotoxicity / cell viability via MTS assay” value is listed as “Minimal toxicity; also recorded: minimal to no cytotoxicity at high concentrations”. Further, the Kd on OSM is ~7 µM and 6.6 µM. Also, the IC50 was 0.136 µM in data set [2] (Figure S3 graph A (T47D by order), four parameter nonlinear regression, given as negative log value, read-out: LogIC50 (graph A) (converted)) and 0.136 µM in data set [2] (T47D cells, ELISA, read-out: IC50 for inhibition of STAT3 phosphorylation). The “Relative pSTAT3 Levels (Table 2, SMI-10B analogs)” value in data set [2] (setting [3]) was 32.7%; in data set [2] (T47D, SMI 10 μM + OSM 10 ng/mL, 30 min, ELISA, relative to +OSM, no-treatment blank subtracted, listed as 10B13) it was 32.73%. Besides, the “Chemical shift perturbation of 15N OSM on titration” value at 15N OSM is listed as “binding to the same site as SMI-10B with a higher affinity”.
Turning to `O=C(O)/C=C/c1cc(-c2ccc3c(c2)OCO3)c(-c2ccc3c(c2)OCO3)o1` [SMI-10B, (E)-3-(4,5-Bis(benzo[d][1,3]dioxol-5-yl)furan-2-yl)acrylic acid], in data set [1], the “Cytotoxicity / cell viability via MTS assay” value is on record as “Minimal toxicity; also recorded: minimal to no cytotoxicity at high concentrations”. In addition, at OSM, the Kd was 12.9 ± 1.5 µM. In data set [2] (setting [3]), the “Relative pSTAT3 Levels (Table 1, SMI-10A-10J)” value came out at 12.8% and the “Relative pSTAT3 Levels (Table 2, SMI-10B analogs)” value was determined as 30.14%. Besides, the “Inhibition of OSM-induced pSTAT3 via ELISA” value in data set [2] (T47D, SMI 10 μM, OSM 10 ng/mL, 30 min) is “capable of inhibiting OSM-induced pSTAT3”. Also, the “Chemical shift perturbation of 15N OSM on titration” value on 15N OSM is “clear shifts in the fast exchange regime”.

For the origin of these results see article PMC12362618, “Development of the First Small-Molecule Inhibitor Targeting Oncostatin M for Treatment of Breast Cancer” (Journal of Medicinal Chemistry, 2025).
